These are literature values, as cited in patent US11802256B2, “Method for extracting palmitoleic acid from macadamia integrifolia and use thereof” (SOUTHWEST FORESTRY UNIVERSITY, priority 2021, dated 2023).

Data set [1] has as its system mouse melanoma cells.
The target in data set [2] is T1, tyrosinase (Mus musculus, UniProt P11344).
T1 construct: host or cells: mouse melanocytes / mouse melanoma cells (endogenous)
T1 sequence (P11344 19-533): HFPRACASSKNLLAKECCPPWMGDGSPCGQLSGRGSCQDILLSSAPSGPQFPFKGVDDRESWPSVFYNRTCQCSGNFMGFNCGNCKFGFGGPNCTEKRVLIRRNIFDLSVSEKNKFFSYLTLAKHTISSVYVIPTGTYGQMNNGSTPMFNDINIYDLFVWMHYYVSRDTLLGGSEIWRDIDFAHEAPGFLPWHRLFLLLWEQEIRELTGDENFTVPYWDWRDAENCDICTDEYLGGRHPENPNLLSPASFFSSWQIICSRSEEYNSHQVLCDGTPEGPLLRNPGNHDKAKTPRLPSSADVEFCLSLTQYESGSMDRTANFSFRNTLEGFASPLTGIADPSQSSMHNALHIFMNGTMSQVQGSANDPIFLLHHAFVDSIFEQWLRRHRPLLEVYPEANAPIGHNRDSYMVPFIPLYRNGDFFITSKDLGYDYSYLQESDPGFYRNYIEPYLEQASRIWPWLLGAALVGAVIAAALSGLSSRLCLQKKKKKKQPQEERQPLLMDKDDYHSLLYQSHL
Particulars: mouse melanocytes, at a protein level.

Molecules are shown by their SMILES.

On to `CCCCCC/C=C\CCCCCCCC(=O)O` [palmitoleic acid], for which the “inhibitory effect on melanin production” value in data set [1] was “strong inhibitory effect”. In addition, in data set [2], the tyrosinase activity result is on record as “inhibits tyrosinase activity”.
